Assay results published in ChEMBL document CHEMBL2384992, “Conformation constraint of anilides enabling the discovery of tricyclic lactams as potent MK2 non-ATP competitive inhibitors” (Bioorg Med Chem Lett, 2013).
Values belong to the compound of their own block, whether it stands above or below them.

What was measured:
[1] = target: Glycogen synthase kinase-3 beta (Homo sapiens, UniProt P49841); test: Inhibition of GSK3B (unknown origin)
[2] = target: Serine/threonine-protein kinase 3 (Homo sapiens, UniProt Q13188); test: Inhibition of MST2 (unknown origin)
[3] = target: Insulin-like growth factor 1 receptor (Homo sapiens, UniProt P08069); test: Inhibition of IGF1R (unknown origin)
[4] = target: MAP kinase-activated protein kinase 2 (Homo sapiens, UniProt P49137)
Description: Inhibition of MK2 (unknown origin) phosphorylation using TAMRA labeled peptide as substrate incubated 30 mins before substrate addition measured after 30 mins

[5] = target: Epidermal growth factor receptor (Homo sapiens, UniProt P00533); test: Inhibition of EGFR (unknown origin)
[6] = target: Testis-specific serine/threonine-protein kinase 2 (Homo sapiens, UniProt Q96PF2); test: Inhibition of TSSK2 (unknown origin)
Ephrin type-B receptor 4 = Ephrin type-B receptor 4 (Homo sapiens, UniProt P54760); test: Inhibition of EPHB4 (unknown origin)
[7] = target: Receptor-type tyrosine-protein kinase FLT3 (Homo sapiens, UniProt P36888); test: Inhibition of FLT3 (unknown origin)
[8] = target: Mitogen-activated protein kinase 1 (Homo sapiens, UniProt P28482); test: Inhibition of ERK2 (unknown origin)
[9] = target: Tyrosine-protein kinase Lck (Homo sapiens, UniProt P06239); test: Inhibition of LCK (unknown origin)
[10] = target: Serine/threonine-protein kinase PLK3 (Homo sapiens, UniProt Q9H4B4); test: Inhibition of PLK3 (unknown origin)
[11] = target: Interleukin-1 receptor-associated kinase 4 (Homo sapiens, UniProt Q9NWZ3); test: Inhibition of IRAK4 (unknown origin)
[12] = target: Serine/threonine-protein kinase Nek2 (Homo sapiens, UniProt P51955); test: Inhibition of NEK2 (unknown origin)
[13] = target: Serine/threonine-protein kinase Chk1 (Homo sapiens, UniProt O14757); test: Inhibition of CHK1 (unknown origin)
[14] = target: Inhibitor of nuclear factor kappa-B kinase subunit beta (Homo sapiens, UniProt O14920); test: Inhibition of IKKB (unknown origin)
[15] = target: Casein kinase I isoform delta (Homo sapiens, UniProt P48730); test: Inhibition of CSNK1D (unknown origin)
[16] = target: Hepatocyte growth factor receptor (Homo sapiens, UniProt P08581); test: Inhibition of MET (unknown origin)
[17] = target: RAC-alpha serine/threonine-protein kinase (Homo sapiens, UniProt P31749); test: Inhibition of AKT1 (unknown origin)
[18] = target: Rho-associated protein kinase 2 (Homo sapiens, UniProt O75116); test: Inhibition of ROCK2 (unknown origin)
[19] = target: Tyrosine-protein kinase JAK2 (Homo sapiens, UniProt O60674); test: Inhibition of JAK2 (unknown origin)
[20] = target: Protein kinase C alpha type (Homo sapiens, UniProt P17252); test: Inhibition of PKCA (unknown origin)
[21] = target: Calcium/calmodulin-dependent protein kinase type IV (Homo sapiens, UniProt Q16566); test: Inhibition of CAMK4 (unknown origin)
[22] = Toxicity in human SW1353 cells; assay type: cell-based
THP-1 = test: cells; conditions: Homo sapiens
Description: Antiinflammatory activity in human THP1 cells assessed as inhibition of LPS-induced TNFalpha production treated 30 mins before LPS addition measured after 3 hrs by ELISA

Sequence of Insulin-like growth factor 1 receptor (P08069 31-736 limits assumed): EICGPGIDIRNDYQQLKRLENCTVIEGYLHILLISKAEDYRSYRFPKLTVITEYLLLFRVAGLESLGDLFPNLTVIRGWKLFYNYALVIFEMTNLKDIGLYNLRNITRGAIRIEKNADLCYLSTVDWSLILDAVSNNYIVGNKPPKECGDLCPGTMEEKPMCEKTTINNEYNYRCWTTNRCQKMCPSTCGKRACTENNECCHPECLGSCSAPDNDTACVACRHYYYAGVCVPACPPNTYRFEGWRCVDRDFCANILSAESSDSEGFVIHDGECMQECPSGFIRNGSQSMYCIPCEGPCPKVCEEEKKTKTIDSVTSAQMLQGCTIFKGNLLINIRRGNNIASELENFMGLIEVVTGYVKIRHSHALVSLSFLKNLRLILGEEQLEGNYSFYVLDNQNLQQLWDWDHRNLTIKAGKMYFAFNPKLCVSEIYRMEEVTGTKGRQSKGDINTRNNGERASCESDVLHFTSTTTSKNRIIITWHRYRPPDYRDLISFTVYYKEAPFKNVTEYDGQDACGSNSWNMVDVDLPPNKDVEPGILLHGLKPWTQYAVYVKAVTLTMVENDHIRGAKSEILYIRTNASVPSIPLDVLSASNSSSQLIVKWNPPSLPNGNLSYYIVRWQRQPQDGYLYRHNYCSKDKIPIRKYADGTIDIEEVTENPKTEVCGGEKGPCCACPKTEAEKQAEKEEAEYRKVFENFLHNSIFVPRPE
Sequence of Insulin-like growth factor 1 receptor (P08069 741-1367 limits assumed): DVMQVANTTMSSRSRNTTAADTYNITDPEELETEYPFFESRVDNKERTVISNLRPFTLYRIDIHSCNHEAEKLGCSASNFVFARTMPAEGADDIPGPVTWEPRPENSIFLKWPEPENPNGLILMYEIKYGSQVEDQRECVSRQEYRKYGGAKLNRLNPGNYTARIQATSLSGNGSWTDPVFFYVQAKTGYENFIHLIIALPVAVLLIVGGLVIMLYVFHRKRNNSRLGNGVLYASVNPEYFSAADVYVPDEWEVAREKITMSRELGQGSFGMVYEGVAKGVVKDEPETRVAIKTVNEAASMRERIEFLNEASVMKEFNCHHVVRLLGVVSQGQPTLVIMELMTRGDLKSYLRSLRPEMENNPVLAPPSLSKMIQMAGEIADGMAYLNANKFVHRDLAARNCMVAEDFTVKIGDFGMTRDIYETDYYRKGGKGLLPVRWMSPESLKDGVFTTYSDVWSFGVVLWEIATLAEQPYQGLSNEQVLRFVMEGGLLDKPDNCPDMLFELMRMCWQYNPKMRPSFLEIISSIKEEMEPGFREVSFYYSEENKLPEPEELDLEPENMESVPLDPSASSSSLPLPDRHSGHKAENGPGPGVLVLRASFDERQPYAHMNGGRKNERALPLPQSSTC
Sequence of Casein kinase I isoform delta (P48730 whole entry, canonical isoform): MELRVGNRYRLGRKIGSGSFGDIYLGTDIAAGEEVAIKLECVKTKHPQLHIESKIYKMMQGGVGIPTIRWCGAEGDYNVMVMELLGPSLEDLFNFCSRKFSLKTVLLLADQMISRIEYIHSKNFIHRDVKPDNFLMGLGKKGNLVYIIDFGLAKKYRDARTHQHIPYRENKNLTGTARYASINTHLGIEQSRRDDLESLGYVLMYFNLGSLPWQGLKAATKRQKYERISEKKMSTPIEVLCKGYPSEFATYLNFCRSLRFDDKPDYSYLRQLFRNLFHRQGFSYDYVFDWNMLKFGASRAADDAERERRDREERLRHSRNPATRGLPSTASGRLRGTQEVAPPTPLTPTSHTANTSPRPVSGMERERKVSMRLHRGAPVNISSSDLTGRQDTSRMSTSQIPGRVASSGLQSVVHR
Sequence of Interleukin-1 receptor-associated kinase 4 (Q9NWZ3 whole entry): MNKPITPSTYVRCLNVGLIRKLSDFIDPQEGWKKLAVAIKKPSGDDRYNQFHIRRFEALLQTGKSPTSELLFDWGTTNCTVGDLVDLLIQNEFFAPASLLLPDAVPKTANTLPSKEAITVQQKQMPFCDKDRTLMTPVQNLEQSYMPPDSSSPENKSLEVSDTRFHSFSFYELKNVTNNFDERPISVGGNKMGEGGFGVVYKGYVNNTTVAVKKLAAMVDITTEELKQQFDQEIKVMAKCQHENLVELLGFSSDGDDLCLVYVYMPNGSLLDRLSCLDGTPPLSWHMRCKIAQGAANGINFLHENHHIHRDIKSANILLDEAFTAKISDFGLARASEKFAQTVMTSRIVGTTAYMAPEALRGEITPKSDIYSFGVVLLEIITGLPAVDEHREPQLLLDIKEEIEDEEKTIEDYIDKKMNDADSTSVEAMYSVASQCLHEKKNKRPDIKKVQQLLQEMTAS
Sequence of Serine/threonine-protein kinase Chk1 (O14757 whole entry): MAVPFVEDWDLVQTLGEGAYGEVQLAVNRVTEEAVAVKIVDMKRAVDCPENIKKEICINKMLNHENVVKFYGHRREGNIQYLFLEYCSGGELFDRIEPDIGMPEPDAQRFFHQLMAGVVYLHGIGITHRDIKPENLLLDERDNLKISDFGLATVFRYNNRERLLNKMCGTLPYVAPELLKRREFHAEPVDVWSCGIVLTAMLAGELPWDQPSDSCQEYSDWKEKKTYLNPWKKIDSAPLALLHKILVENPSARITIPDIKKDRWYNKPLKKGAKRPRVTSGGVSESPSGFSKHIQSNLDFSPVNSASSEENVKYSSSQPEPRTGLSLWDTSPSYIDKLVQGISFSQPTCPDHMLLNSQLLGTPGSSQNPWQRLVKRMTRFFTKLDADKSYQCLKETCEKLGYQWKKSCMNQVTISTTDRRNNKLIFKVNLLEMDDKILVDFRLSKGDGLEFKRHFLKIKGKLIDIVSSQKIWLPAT
Sequence of Ephrin type-B receptor 4 (P54760 whole entry): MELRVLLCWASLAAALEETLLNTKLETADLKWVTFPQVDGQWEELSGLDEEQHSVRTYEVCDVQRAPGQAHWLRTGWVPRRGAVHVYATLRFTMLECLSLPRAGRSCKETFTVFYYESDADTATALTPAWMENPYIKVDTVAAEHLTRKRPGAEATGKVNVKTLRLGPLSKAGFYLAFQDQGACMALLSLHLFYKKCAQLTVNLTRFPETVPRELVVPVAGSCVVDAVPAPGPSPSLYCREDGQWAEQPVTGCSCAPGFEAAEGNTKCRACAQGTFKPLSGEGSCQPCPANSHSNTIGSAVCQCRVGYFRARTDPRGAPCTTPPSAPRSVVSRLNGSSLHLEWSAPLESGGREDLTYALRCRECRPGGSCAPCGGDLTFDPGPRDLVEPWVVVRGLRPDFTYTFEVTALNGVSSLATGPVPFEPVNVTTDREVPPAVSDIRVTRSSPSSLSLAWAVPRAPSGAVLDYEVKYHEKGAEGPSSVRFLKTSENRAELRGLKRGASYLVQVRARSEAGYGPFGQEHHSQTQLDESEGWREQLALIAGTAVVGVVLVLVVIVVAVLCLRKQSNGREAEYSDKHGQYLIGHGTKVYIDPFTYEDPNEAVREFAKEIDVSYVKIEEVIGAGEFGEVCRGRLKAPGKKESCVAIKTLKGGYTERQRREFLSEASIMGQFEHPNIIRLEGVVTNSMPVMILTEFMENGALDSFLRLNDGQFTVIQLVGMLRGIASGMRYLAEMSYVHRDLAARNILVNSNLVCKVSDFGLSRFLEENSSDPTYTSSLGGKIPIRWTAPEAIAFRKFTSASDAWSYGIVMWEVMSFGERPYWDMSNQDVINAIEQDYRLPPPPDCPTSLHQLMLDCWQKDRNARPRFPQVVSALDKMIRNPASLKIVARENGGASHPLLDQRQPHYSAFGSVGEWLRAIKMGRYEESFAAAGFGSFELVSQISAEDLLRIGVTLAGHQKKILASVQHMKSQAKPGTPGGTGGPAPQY
Sequence of Testis-specific serine/threonine-protein kinase 2 (Q96PF2 whole entry): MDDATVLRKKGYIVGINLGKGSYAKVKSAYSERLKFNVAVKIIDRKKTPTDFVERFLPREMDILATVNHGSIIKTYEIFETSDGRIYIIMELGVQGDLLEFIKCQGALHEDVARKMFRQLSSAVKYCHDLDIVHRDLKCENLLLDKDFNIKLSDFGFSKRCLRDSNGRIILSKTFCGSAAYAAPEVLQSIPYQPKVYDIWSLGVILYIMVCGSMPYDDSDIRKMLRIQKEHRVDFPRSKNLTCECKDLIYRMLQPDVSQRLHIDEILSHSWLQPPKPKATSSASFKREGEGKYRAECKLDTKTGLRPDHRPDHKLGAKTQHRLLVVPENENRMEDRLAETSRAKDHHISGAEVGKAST
Sequence of Serine/threonine-protein kinase Nek2 (P51955 whole entry): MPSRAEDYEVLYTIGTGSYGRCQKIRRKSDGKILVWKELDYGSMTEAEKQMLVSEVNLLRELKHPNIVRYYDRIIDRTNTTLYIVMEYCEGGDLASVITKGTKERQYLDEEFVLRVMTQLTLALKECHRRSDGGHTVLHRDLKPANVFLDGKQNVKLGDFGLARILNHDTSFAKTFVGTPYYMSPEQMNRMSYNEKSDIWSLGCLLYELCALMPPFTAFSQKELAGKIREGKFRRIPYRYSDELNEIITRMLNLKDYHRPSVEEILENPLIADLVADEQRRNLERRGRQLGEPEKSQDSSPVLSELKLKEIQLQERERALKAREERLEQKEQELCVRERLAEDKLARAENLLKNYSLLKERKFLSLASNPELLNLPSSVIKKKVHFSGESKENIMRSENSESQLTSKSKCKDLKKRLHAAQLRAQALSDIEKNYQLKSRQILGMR
Sequence of Mitogen-activated protein kinase 1 (P28482 whole entry): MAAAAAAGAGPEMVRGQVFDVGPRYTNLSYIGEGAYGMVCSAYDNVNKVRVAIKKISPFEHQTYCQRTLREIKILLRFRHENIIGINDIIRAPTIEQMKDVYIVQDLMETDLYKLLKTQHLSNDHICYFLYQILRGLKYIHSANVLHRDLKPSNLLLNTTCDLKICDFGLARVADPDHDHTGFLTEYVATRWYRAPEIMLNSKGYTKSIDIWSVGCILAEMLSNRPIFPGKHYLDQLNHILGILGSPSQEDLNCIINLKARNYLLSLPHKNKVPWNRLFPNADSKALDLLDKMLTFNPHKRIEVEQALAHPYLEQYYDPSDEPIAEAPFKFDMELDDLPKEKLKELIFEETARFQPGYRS

IC50 [1]: > 30 µM
IC50 [2]: > 12 µM
IC50 [3]: > 30 µM
IC50 [4]: 0.022 µM
IC50 [5]: > 30 µM
IC50 [6]: > 30 µM
IC50 (Ephrin type-B receptor 4): > 30 µM
IC50 [7]: > 30 µM
IC50 [8]: > 30 µM
IC50 [9]: > 19 µM
IC50 [10]: > 30 µM
IC50 [11]: 26 µM
IC50 [12]: 13 µM
IC50 [13]: > 18 µM
IC50 [14]: 24 µM
IC50 [15]: > 30 µM
IC50 [16]: > 30 µM
IC50 [17]: 16 µM
IC50 [18]: > 20 µM
IC50 [19]: 11 µM
IC50 [20]: 10 µM
IC50 [21]: 27 µM
SMILES: O=C1c2oc(-c3ccc(Cl)cc3)cc2Cc2cc(N3CCNCC3)ccc2N1Cc1ccccc1-c1cccnc1

SMILES: O=C1c2oc(-c3ccc(Cl)cc3)cc2Cc2cc(N3CCNCC3)ccc2N1Cc1ccccn1
CC50 [22]: 17.4 µM

EC50 (THP-1): 0.15 µM
SMILES: N#Cc1ccc(-c2cc3c(o2)C(=O)N(Cc2ccccc2-c2cncnc2)c2ccc(N4CCNCC4)cc2C3)cc1
